{"source": "patent US7365231B2", "about": "“Compound with antitumor activity and preparation method therefor” (National Taiwan University of Science & Technology, priority 2005, dated 2008)", "key": {"HT-29 cells": {"tested_on": "HT-29 cells", "assay": "Cell cycle analysis by flow cytometry", "assay_type": "cell-based, human", "protocol": "[…] […] HT-29 cells were mainly in G0/G1 phase (84.1-86.0%), and only a few percent of cells in S phase (7.4-8.0%) after exposure to 4 μM DPA for 48-72 h. […] The G0/G1 arrest was not induced in the HCT-15 cells treated with 1-8 μM DPA for 24-72 h. […] DPA exerted the dose specific effect for the induced G0/G1 arrest on Colo 205 cells. […] In addition, we noted that DPA-mediated accumulation of Colo205 and HT 29 cells in G1 phase (>80%) was similar to that of DPD (Anti-Cancer Drug 2004; 15:277-80). It is likely that the induced G1-arrest without concomitant apoptosis on Colo 205 and HT 29 colon cancer cells is one unique property of structure I."}, "Colo 205 cells": {"tested_on": "Colo 205 cells", "assay": "Cell cycle analysis by flow cytometry", "assay_type": "cell-based, human"}}}
{"smiles": "Nc1ccc(Oc2ccc(C3(c4ccc(Oc5ccc(N)c(O)c5)cc4)C4CC5CC(C4)CC3C5)cc2)cc1O", "note": "[DPA, 2,2-bis(4-(4-amino-3-hydroxyphenoxy)phenyl)adamantane]", "values": [{"measurement": "G0/G1 cell-cycle arrest and apoptosis", "setting": "HT-29 cells; HT 29", "result": "G0/G1 cell-cycle arrest without concomitant apoptosis"}, {"measurement": "accumulation of cells in G1 phase", "setting": "HT-29 cells; HT 29", "result": "> 80", "unit": "%"}, {"measurement": "cells in G0/G1 phase", "setting": "HT-29 cells; HT-29, 4 μM DPA for 48-72 h", "result": "84.1-86.0%"}, {"measurement": "cells in S phase", "setting": "HT-29 cells; HT-29, 4 μM DPA for 48-72 h", "result": "7.4-8.0%"}, {"measurement": "G0/G1(%)", "setting": "HT-29 cells; HT-29, DPA 1 μM, 24 h", "result": 56.6, "unit": "%"}, {"measurement": "G2/M(%)", "setting": "HT-29 cells; HT-29, DPA 1 μM, 24 h", "result": 10.3, "unit": "%"}, {"measurement": "S(%)", "setting": "HT-29 cells; HT-29, DPA 1 μM, 24 h", "result": 33.1, "unit": "%"}, {"measurement": "G0/G1(%)", "setting": "HT-29 cells; HT-29, DPA 1 μM, 48 h", "result": 61.6, "unit": "%"}, {"measurement": "G2/M(%)", "setting": "HT-29 cells; HT-29, DPA 1 μM, 48 h", "result": 9.4, "unit": "%"}, {"measurement": "S(%)", "setting": "HT-29 cells; HT-29, DPA 1 μM, 48 h", "result": 29.0, "unit": "%"}, {"measurement": "G0/G1(%)", "setting": "HT-29 cells; HT-29, DPA 1 μM, 72 h", "result": 72.6, "unit": "%"}, {"measurement": "G2/M(%)", "setting": "HT-29 cells; HT-29, DPA 1 μM, 72 h", "result": 7.3, "unit": "%"}, {"measurement": "S(%)", "setting": "HT-29 cells; HT-29, DPA 1 μM, 72 h", "result": 20.1, "unit": "%"}, {"measurement": "G0/G1(%)", "setting": "HT-29 cells; HT-29, DPA 2 μM, 24 h", "result": 67.0, "unit": "%"}, {"measurement": "G2/M(%)", "setting": "HT-29 cells; HT-29, DPA 2 μM, 24 h", "result": 10.0, "unit": "%"}, {"measurement": "S(%)", "setting": "HT-29 cells; HT-29, DPA 2 μM, 24 h", "result": 23.1, "unit": "%"}, {"measurement": "G0/G1(%)", "setting": "HT-29 cells; HT-29, DPA 2 μM, 48 h", "result": 77.5, "unit": "%"}, {"measurement": "G2/M(%)", "setting": "HT-29 cells; HT-29, DPA 2 μM, 48 h", "result": 4.7, "unit": "%"}, {"measurement": "S(%)", "setting": "HT-29 cells; HT-29, DPA 2 μM, 48 h", "result": 17.8, "unit": "%"}, {"measurement": "G0/G1(%)", "setting": "HT-29 cells; HT-29, DPA 2 μM, 72 h", "result": 67.3, "unit": "%"}, {"measurement": "G2/M(%)", "setting": "HT-29 cells; HT-29, DPA 2 μM, 72 h", "result": 2.9, "unit": "%"}, {"measurement": "S(%)", "setting": "HT-29 cells; HT-29, DPA 2 μM, 72 h", "result": 29.9, "unit": "%"}, {"measurement": "G0/G1(%)", "setting": "HT-29 cells; HT-29, DPA 4 μM, 24 h", "result": 72.1, "unit": "%"}, {"measurement": "G2/M(%)", "setting": "HT-29 cells; HT-29, DPA 4 μM, 24 h", "result": 10.9, "unit": "%"}, {"measurement": "S(%)", "setting": "HT-29 cells; HT-29, DPA 4 μM, 24 h", "result": 17.1, "unit": "%"}, {"measurement": "G0/G1(%)", "setting": "HT-29 cells; HT-29, DPA 4 μM, 48 h", "result": 84.1, "unit": "%"}, {"measurement": "G2/M(%)", "setting": "HT-29 cells; HT-29, DPA 4 μM, 48 h", "result": 8.5, "unit": "%"}, {"measurement": "S(%)", "setting": "HT-29 cells; HT-29, DPA 4 μM, 48 h", "result": 7.4, "unit": "%"}, {"measurement": "G0/G1(%)", "setting": "HT-29 cells; HT-29, DPA 4 μM, 72 h", "result": 86.0, "unit": "%"}, {"measurement": "G2/M(%)", "setting": "HT-29 cells; HT-29, DPA 4 μM, 72 h", "result": 6.1, "unit": "%"}, {"measurement": "S(%)", "setting": "HT-29 cells; HT-29, DPA 4 μM, 72 h", "result": 8.0, "unit": "%"}, {"measurement": "G0/G1(%)", "setting": "HT-29 cells; HT-29, DPA 8 μM, 24 h", "result": 77.0, "unit": "%"}, {"measurement": "G2/M(%)", "setting": "HT-29 cells; HT-29, DPA 8 μM, 24 h", "result": 9.6, "unit": "%"}, {"measurement": "S(%)", "setting": "HT-29 cells; HT-29, DPA 8 μM, 24 h", "result": 13.3, "unit": "%"}, {"measurement": "G0/G1(%)", "setting": "HT-29 cells; HT-29, DPA 8 μM, 48 h", "result": 79.5, "unit": "%"}, {"measurement": "G2/M(%)", "setting": "HT-29 cells; HT-29, DPA 8 μM, 48 h", "result": 10.0, "unit": "%"}, {"measurement": "S(%)", "setting": "HT-29 cells; HT-29, DPA 8 μM, 48 h", "result": 10.6, "unit": "%"}, {"measurement": "G0/G1(%)", "setting": "HT-29 cells; HT-29, DPA 8 μM, 72 h", "result": 86.3, "unit": "%"}, {"measurement": "G2/M(%)", "setting": "HT-29 cells; HT-29, DPA 8 μM, 72 h", "result": 6.2, "unit": "%"}, {"measurement": "S(%)", "setting": "HT-29 cells; HT-29, DPA 8 μM, 72 h", "result": 7.5, "unit": "%"}, {"measurement": "G0/G1 cell-cycle arrest and apoptosis", "setting": "Colo 205 cells; Colo205", "result": "G0/G1 cell-cycle arrest without concomitant apoptosis"}, {"measurement": "cells in G1 phase", "setting": "Colo 205 cells; Colo 205, 2 μM DPA for 48-72 h", "result": "84.1-87.1%"}, {"measurement": "cells in G2/M phase", "setting": "Colo 205 cells; Colo 205, 2 μM DPA for 48-72 h", "result": "5.1-5.6%"}, {"measurement": "cells in S phase", "setting": "Colo 205 cells; Colo 205, 2 μM DPA for 48-72 h", "result": "7.8-10.3%"}, {"measurement": "G0/G1(%)", "setting": "Colo 205 cells; Colo 205, DPA 1 μM, 24 h", "result": 58.9, "unit": "%"}, {"measurement": "G2/M(%)", "setting": "Colo 205 cells; Colo 205, DPA 1 μM, 24 h", "result": 12.0, "unit": "%"}, {"measurement": "S(%)", "setting": "Colo 205 cells; Colo 205, DPA 1 μM, 24 h", "result": 29.0, "unit": "%"}, {"measurement": "G0/G1(%)", "setting": "Colo 205 cells; Colo 205, DPA 1 μM, 48 h", "result": 53.3, "unit": "%"}, {"measurement": "G2/M(%)", "setting": "Colo 205 cells; Colo 205, DPA 1 μM, 48 h", "result": 7.6, "unit": "%"}, {"measurement": "S(%)", "setting": "Colo 205 cells; Colo 205, DPA 1 μM, 48 h", "result": 39.0, "unit": "%"}, {"measurement": "G0/G1(%)", "setting": "Colo 205 cells; Colo 205, DPA 1 μM, 72 h", "result": 60.3, "unit": "%"}, {"measurement": "G0/G1(%)", "setting": "Colo 205 cells; Colo 205, DPA 2 μM, 24 h", "result": 67.1, "unit": "%"}, {"measurement": "G2/M(%)", "setting": "Colo 205 cells; Colo 205, DPA 2 μM, 24 h", "result": 48.3, "unit": "%"}, {"measurement": "S(%)", "setting": "Colo 205 cells; Colo 205, DPA 2 μM, 24 h", "result": 24.1, "unit": "%"}, {"measurement": "G0/G1(%)", "setting": "Colo 205 cells; Colo 205, DPA 2 μM, 48 h", "result": 84.1, "unit": "%"}, {"measurement": "G2/M(%)", "setting": "Colo 205 cells; Colo 205, DPA 2 μM, 48 h", "result": 5.6, "unit": "%"}, {"measurement": "S(%)", "setting": "Colo 205 cells; Colo 205, DPA 2 μM, 48 h", "result": 10.3, "unit": "%"}, {"measurement": "G0/G1(%)", "setting": "Colo 205 cells; Colo 205, DPA 2 μM, 72 h", "result": 87.1, "unit": "%"}, {"measurement": "G2/M(%)", "setting": "Colo 205 cells; Colo 205, DPA 2 μM, 72 h", "result": 5.1, "unit": "%"}, {"measurement": "S(%)", "setting": "Colo 205 cells; Colo 205, DPA 2 μM, 72 h", "result": 7.8, "unit": "%"}, {"measurement": "G0/G1(%)", "setting": "Colo 205 cells; Colo 205, DPA 4 μM, 24 h", "result": 67.5, "unit": "%"}, {"measurement": "G2/M(%)", "setting": "Colo 205 cells; Colo 205, DPA 4 μM, 24 h", "result": 8.2, "unit": "%"}, {"measurement": "S(%)", "setting": "Colo 205 cells; Colo 205, DPA 4 μM, 24 h", "result": 24.3, "unit": "%"}, {"measurement": "G0/G1(%)", "setting": "Colo 205 cells; Colo 205, DPA 4 μM, 48 h", "result": 71.6, "unit": "%"}, {"measurement": "G2/M(%)", "setting": "Colo 205 cells; Colo 205, DPA 4 μM, 48 h", "result": 10.4, "unit": "%"}, {"measurement": "S(%)", "setting": "Colo 205 cells; Colo 205, DPA 4 μM, 48 h", "result": 18.1, "unit": "%"}, {"measurement": "G0/G1(%)", "setting": "Colo 205 cells; Colo 205, DPA 4 μM, 72 h", "result": 76.3, "unit": "%"}, {"measurement": "G2/M(%)", "setting": "Colo 205 cells; Colo 205, DPA 4 μM, 72 h", "result": 10.3, "unit": "%"}, {"measurement": "S(%)", "setting": "Colo 205 cells; Colo 205, DPA 4 μM, 72 h", "result": 13.4, "unit": "%"}, {"measurement": "G0/G1(%)", "setting": "Colo 205 cells; Colo 205, DPA 8 μM, 24 h", "result": 70.5, "unit": "%"}, {"measurement": "G2/M(%)", "setting": "Colo 205 cells; Colo 205, DPA 8 μM, 24 h", "result": 5.2, "unit": "%"}, {"measurement": "S(%)", "setting": "Colo 205 cells; Colo 205, DPA 8 μM, 24 h", "result": 24.3, "unit": "%"}, {"measurement": "G0/G1(%)", "setting": "Colo 205 cells; Colo 205, DPA 8 μM, 48 h", "result": 70.6, "unit": "%"}, {"measurement": "G2/M(%)", "setting": "Colo 205 cells; Colo 205, DPA 8 μM, 48 h", "result": 5.2, "unit": "%"}, {"measurement": "S(%)", "setting": "Colo 205 cells; Colo 205, DPA 8 μM, 48 h", "result": 24.1, "unit": "%"}, {"measurement": "G0/G1(%)", "setting": "Colo 205 cells; Colo 205, DPA 8 μM, 72 h", "result": 70.7, "unit": "%"}, {"measurement": "G2/M(%)", "setting": "Colo 205 cells; Colo 205, DPA 8 μM, 72 h", "result": 3.4, "unit": "%"}, {"measurement": "S(%)", "setting": "Colo 205 cells; Colo 205, DPA 8 μM, 72 h", "result": 25.8, "unit": "%"}]}
